Measured values published in patent US11623924B2, “Modulators of alpha-1 antitrypsin” (Vertex Pharmaceuticals Incorporated, priority 2018, dated 2023).

Target: T1, NL20 human bronchial epithelial cells expressing human Z-AAT (Homo sapiens, UniProt P01009, E366K)
T1 construct: expressed in transfected cells; host or cells: NL20 human bronchial epithelial cells (NL20-SI line, doxycycline added)
Assay: AAT Function Assay (MSD Assay NL20-SI Cell Line)
Assay type: cell-based
Settings: functionally active AAT (AAT-hNE complex) in supernatant of NL20 cells expressing human Z-AAT; read-out: NL20 Func. (EC50)
In short: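 NL20 cells expressing Z-AAT, seeded 16,000 cells/well, received compound with doxycycline (0.1 μM final) and were incubated overnight at 37° C. Supernatants, diluted 45-fold in total, reacted with excess human neutrophil elastase; AAT-elastase complex captured on anti-AAT plates, detected with Sulfo-tagged anti-elastase by MSD electrochemiluminescence, and quantified against M-AAT standards (0.156-320 ng/mL).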

T1 sequence (P01009 25-418 E366K): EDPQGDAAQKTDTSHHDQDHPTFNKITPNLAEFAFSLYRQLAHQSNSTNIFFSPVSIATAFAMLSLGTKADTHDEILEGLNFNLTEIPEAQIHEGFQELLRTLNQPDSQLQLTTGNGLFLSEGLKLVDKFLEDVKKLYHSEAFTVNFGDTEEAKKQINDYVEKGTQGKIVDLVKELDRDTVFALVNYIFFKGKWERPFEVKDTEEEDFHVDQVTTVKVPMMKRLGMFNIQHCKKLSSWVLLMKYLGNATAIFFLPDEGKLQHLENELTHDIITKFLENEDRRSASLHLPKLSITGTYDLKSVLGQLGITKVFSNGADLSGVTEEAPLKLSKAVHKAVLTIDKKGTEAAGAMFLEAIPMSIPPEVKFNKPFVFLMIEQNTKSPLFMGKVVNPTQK

Compound | EC50
[2H]C(C(=O)O)C([2H])([2H])c1c(C(C)C)n(-c2ccc(F)cc2)c2cc3cn[nH]c3cc12 (stereo not drawn) [Compound 168, 2,3,3-trideuterio-3-[5-(4-fluorophenyl)-6-isopropyl-1H-pyrrolo[2,3-f]indazol-7-yl]propanoic acid] | 1.16 to 3 µM
[2H]C([2H])(CC(=O)O)c1c(C(C)C)n(-c2ccc(F)cc2)c2cc3cn[nH]c3cc12 [Compound 169, 3,3-dideuterio-3-[5-(4-fluorophenyl)-6-isopropyl-1H-pyrrolo[2,3-f]indazol-7-yl]propanoic Acid] | 1.16 to 3 µM
[2H]C([2H])(Cc1c(C(C)C)n(-c2ccc(F)cc2)c2cc3cn[nH]c3cc12)C(=O)O [Compound 170, 2,2-dideuterio-3-[5-(4-fluorophenyl)-6-isopropyl-1H-pyrrolo[2,3-f]indazol-7-yl]propanoic Acid] | 1.16 to 3 µM
[2H]C([2H])(C(=O)O)C([2H])([2H])c1c(C(C)C)n(-c2ccc(F)cc2)c2cc3cn[nH]c3cc12 [Compound 171, 2,2,3,3-tetradeuterio-3-[5-(4-fluorophenyl)-6-isopropyl-1H-pyrrolo[2,3-f]indazol-7-yl]propanoic Acid] | < 1.16 µM
CC(C)c1c(C2CNC2)c2cc3[nH]ncc3cc2n1-c1ccc(F)cc1 [Compound 174, 7-(azetidin-3-yl)-5-(4-fluorophenyl)-6-isopropyl-1H-pyrrolo[2,3-f]indazole] | > 3 µM
COCC(C)(C)c1c(CC2CC(C(=O)O)C2)c2cc3[nH]ncc3cc2n1-c1ccc(F)cc1 (stereo not drawn) [Compound 175] | 1.16 to 3 µM
COCC(C)(C)c1c(CCC(=O)O)c2cc3[nH]ncc3cc2n1-c1ccc(F)cc1 [Compound 177] | 1.16 to 3 µM
COCCc1c(C(C)(C)COC)n(-c2ccc(F)cc2)c2cc3cn[nH]c3cc12 [Compound 178] | 1.16 to 3 µM
COCC(C)(C)c1c(CCCN)c2cc3[nH]ncc3cc2n1-c1ccc(F)cc1 [Compound 179] | > 3 µM
COCC(C)(C)c1c(CCCNC(N)=O)c2cc3[nH]ncc3cc2n1-c1ccc(F)cc1 [Compound 180] | 1.16 to 3 µM
COCC(C)(C)c1c(CCCNC(=O)OCc2ccccc2)c2cc3[nH]ncc3cc2n1-c1ccc(F)cc1 [Compound 181] | > 3 µM
COCC(C)(C)c1c(CC2CCS(=O)(=O)CC2)c2cc3[nH]ncc3cc2n1-c1ccc(F)cc1 [Compound 182] | 1.16 to 3 µM
COCC(C)(C)c1c(CCC(N)=O)c2cc3[nH]ncc3cc2n1-c1ccc(F)cc1 [Compound 183] | > 3 µM
C[C@H](O)C(=O)N1CC2(CC(c3c(C4CCOCC4)n(-c4ccc(F)c(F)c4)c4cc5cn[nH]c5cc34)C2)C1 [Compound 184, (2S)-1-[6-[5-(3,4-difluorophenyl)-6-tetrahydropyran-4-yl-1H-pyrrolo[2,3-f]indazol-7-yl]-2-azaspiro[3.3]heptan-2-yl]-2-hydroxy-propan-1-one] | > 3 µM
C[C@@H](O)C(=O)N1CC2(CC(c3c(C4CCOCC4)n(-c4ccc(F)c(F)c4)c4cc5cn[nH]c5cc34)C2)C1 [Compound 185, (2R)-1-[6-[5-(3,4-difluorophenyl)-6-tetrahydropyran-4-yl-1H-pyrrolo[2,3-f]indazol-7-yl]-2-azaspiro[3.3]heptan-2-yl]-2-hydroxy-propan-1-one] | 1.16 to 3 µM
N#Cc1n[nH]c2cc3c(C4CC5(CC(C(=O)O)C5)C4)c(C4CCOCC4)n(-c4ccc(F)c(F)c4)c3cc12 (stereo not drawn) [Compound 186, 6-[3-cyano-5-(3,4-difluorophenyl)-6-tetrahydropyran-4-yl-1H-pyrrolo[2,3-f]indazol-7-yl]spiro[3.3]heptane-2-carboxylic Acid] | > 3 µM
[2H]c1c([2H])c(-n2c(C(C)C)c(CCC(=O)O)c3cc4[nH]ncc4cc32)c([2H])c([2H])c1F [Compound 188, 3-[6-isopropyl-5-(2,3,5,6-tetradeuterio-4-fluoro-phenyl)-1H-pyrrolo[2,3-f]indazol-7-yl]propanoic Acid] | 1.16 to 3 µM
[2H]c1n[nH]c2c([2H])c3c(CC([2H])([2H])C(=O)O)c(C([2H])(C)C)n(-c4ccc(F)cc4)c3c([2H])c12 [Compound 189, 2,2-dideuterio-3-[3,4,8-trideuterio-6-(1-deuterio-1-methyl-ethyl)-5-(4-fluorophenyl)-1H-pyrrolo[2,3-f]indazol-7-yl]propanoic Acid] | 1.16 to 3 µM
CC(C)(CC#N)c1c(CCC(=O)O)c2cc3[nH]ncc3cc2n1-c1ccc(F)cc1 [Compound 190, 3-[6-(2-cyano-1,1-dimethyl-ethyl)-5-(4-fluorophenyl)-1H-pyrrolo[2,3-f]indazol-7-yl]propanoic Acid] | > 3 µM
CC(C)(CC#N)c1c(CCC(N)=O)c2cc3[nH]ncc3cc2n1-c1ccc(F)cc1 [Compound 191, 3-[6-(2-cyano-1,1-dimethyl-ethyl)-5-(4-fluorophenyl)-1H-pyrrolo[2,3-f]indazol-7-yl]propanamide] | > 3 µM
C=C(C)c1c(CCC(=O)O)c2cc3[nH]ncc3cc2n1-c1ccc(F)cc1 [Compound 192, 3-[5-(4-fluorophenyl)-6-isopropenyl-1H-pyrrolo[2,3-f]indazol-7-yl]propanoic Acid] | 1.16 to 3 µM
[2H]C([2H])([2H])C([2H])(c1c(CCC(=O)O)c2cc3[nH]ncc3cc2n1-c1ccc(F)cc1)C([2H])([2H])[2H] [Compound 193, 3-[5-(4-fluorophenyl)-6-[1,2,2,2-tetradeuterio-1-(trideuteriomethyl)ethyl]-1H-pyrrolo[2,3-f]indazol-7-yl]propanoic Acid] | 1.16 to 3 µM
CC(C)c1c(CCC(=O)O)n(-c2ccc(F)cc2)c2cc3cn[nH]c3cc12 [Compound 194, 3-[5-(4-fluorophenyl)-7-isopropyl-1H-pyrrolo[2,3-f]indazol-6-yl]propanoic Acid] | > 3 µM
Cc1cc(-n2c(C(C)C)c(CCC(=O)O)c3cc4c(cnn4C)cc32)ccc1F [Compound 195, 3-[5-(4-fluoro-3-methyl-phenyl)-6-isopropyl-1-methyl-pyrrolo[2,3-f]indazol-7-yl]propanoic Acid] | > 3 µM
CCCn1c(C2CCOCC2)c(C2CC3(CC(C(=O)O)C3)C2)c2cc3[nH]ncc3cc21 (stereo not drawn) [Compound 196, 6-(5-propyl-6-tetrahydropyran-4-yl-1H-pyrrolo[2,3-f]indazol-7-yl)spiro[3.3]heptane-2-carboxylic Acid] | > 3 µM
CC1(c2c(S(C)(=O)=O)c3cc4[nH]ncc4cc3n2-c2ccc(F)cc2)COC1 [Compound 197, 5-(4-fluorophenyl)-6-(3-methyloxetan-3-yl)-7-methylsulfonyl-1H-pyrrolo[2,3-f]indazole] | > 3 µM
O=C(O)CCc1c(C2CNC2)n(-c2ccc(F)cc2)c2cc3cn[nH]c3cc12 [Compound 198, 3-[6-(azetidin-3-yl)-5-(4-fluorophenyl)-1H-pyrrolo[2,3-f]indazol-7-yl]propanoic Acid] | > 3 µM
Cc1cc(-n2c(C(C)C)c(S(C)(=O)=O)c3cc4[nH]nnc4cc32)ccc1F [Compound 199, 5-(4-fluoro-3-methyl-phenyl)-6-isopropyl-7-methylsulfonyl-1H-pyrrolo[2,3-f]benzotriazole] | > 3 µM
CC(C)c1c(CCC(=O)O)c2cc3[nH]ccc3cc2n1-c1ccc(F)cc1 [Compound 200, 3-[1-(4-fluorophenyl)-2-isopropyl-5H-pyrrolo[2,3-f]indol-3-yl]propanoic Acid] | > 3 µM
CC(C)c1c(CCC(=O)O)c2cc3cn[nH]c3cc2n1-c1ccc(F)cc1 [Compound 201, 3-[7-(4-fluorophenyl)-6-isopropyl-1H-pyrrolo[3,2-f]indazol-5-yl]propanoic Acid] | > 3 µM
